Reference: patent publication US20250282768A1 (Janssen Pharmaceutica NV, priority 2022, published 2025)

System: p-IKKa levels in L363 (NIK translocated multiple myeloma) cells
Assay: Assay 2: Effect of compounds on p-IKKa levels in L363 (NIK translocated multiple myeloma) cells
Assay type: cell-based
Conditions: Homo sapiens, L-363, 6 h, read-out: Assay 2 IC50 (nM), p-IKKa (Ser 176/180) in BAFF stimulated L363 cells with MG132, 6 h; average if tested more than once
How it was run: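 Read-out is p-IKKa Ser176/180 by AlphaLISA SureFire in lysates. Cells were BAFF-primed (250 ng/ml) overnight or left unstimulated, then exposed 6 h at 37 °C to compound with MG132 (10 μM), 0.3% DMSO. IC50 from sigmoidal curve fit, normalized between stimulated and unstimulated controls.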

| Structure (SMILES) | IC50 |
| --- | --- |
| CN1CC[C@@](O)(c2cc(-c3cccc(-c4ccnc(Nc5cc6n(n5)CCOC6)n4)n3)no2)C1=O [Example 432, (R)-3-(3-(6-(2-((6,7-Dihydro-4H-pyrazolo[5,1-c][1,4]oxazin-2-yl)amino)pyrimidin-4-yl)pyridin-2-yl)isoxazol-5-yl)-3-hydroxy-1-methylpyrrolidin-2-one] | < 50 nM |
| CN1CC[C@@](O)(c2cc(-c3cccc(-c4ccnc(Nc5cnn6c5CN(CC5CC5)CC6)n4)n3)no2)C1=O [Example 433, (R)-3-(3-(6-(2-((5-(Cyclopropylmethyl)-4,5,6,7-tetrahydropyrazolo[1,5-a]pyrazin-3-yl)amino)pyrimidin-4-yl)pyridin-2-yl)isoxazol-5-yl)-3-hydroxy-1-methylpyrrolidin-2-one] | < 50 nM |
| CN1CC[C@@](O)(c2cc(-c3cccc(-c4ccnc(Nc5cc(CN6CCOCC6)n(C)n5)n4)n3)no2)C1=O [Example 434, (R)-3-Hydroxy-1-methyl-3-(3-(6-(2-((1-methyl-5-(morpholinomethyl)-1H-pyrazol-3-yl)amino)pyrimidin-4-yl)pyridin-2-yl)isoxazol-5-yl)pyrrolidin-2-one] | 50 to 500 nM |
| CN1CC[C@@](O)(c2cc(-c3cccc(-c4ccnc(NCCC(F)(F)F)n4)n3)no2)C1=O [Example 435, (R)-3-Hydroxy-1-methyl-3-(3-(6-(2-((3,3,3-trifluoropropyl)amino)pyrimidin-4-yl)pyridin-2-yl)isoxazol-5-yl)pyrrolidin-2-one] | 50 to 500 nM |
| CN1CC[C@@](O)(c2cc(-c3cccc(-c4ccnc(N[C@H]5CCOC5)n4)n3)no2)C1=O [Example 436, (R)-3-Hydroxy-1-methyl-3-(3-(6-(2-(((S)-tetrahydrofuran-3-yl)amino)pyrimidin-4-yl)pyridin-2-yl)isoxazol-5-yl)pyrrolidin-2-one] | 50 to 500 nM |
| CN1CC[C@@](O)(c2cc(-c3cccc(-c4ccnc(NC5CC(F)(F)C5)n4)n3)no2)C1=O [Example 439, (R)-3-(3-(6-(2-((3,3-Difluorocyclobutyl)amino)pyrimidin-4-yl)pyridin-2-yl)isoxazol-5-yl)-3-hydroxy-1-methylpyrrolidin-2-one] | 50 to 500 nM |
| COC[C@H](C)Nc1nccc(-c2cccc(-c3cc([C@]4(O)CCN(C)C4=O)on3)n2)n1 [Example 440, (R)-3-Hydroxy-3-(3-(6-(2-(((S)-1-methoxypropan-2-yl)amino)pyrimidin-4-yl)pyridin-2-yl)isoxazol-5-yl)-1-methylpyrrolidin-2-one] | 50 to 500 nM |
| C[C@H](Nc1nccc(-c2cccc(-c3cc([C@]4(O)CCN(C)C4=O)on3)n2)n1)C1CC1 [Example 441, (R)-3-(3-(6-(2-(((S)-1-Cyclopropylethyl)amino)pyrimidin-4-yl)pyridin-2-yl)isoxazol-5-yl)-3-hydroxy-1-methylpyrrolidin-2-one] | > 500 nM |
| CN1CC[C@@](O)(c2cc(-c3cccc(-c4ccnc(NC5(C)CC5)n4)n3)no2)C1=O [Example 442, (R)-3-Hydroxy-1-methyl-3-(3-(6-(2-((1-methylcyclopropyl)amino)pyrimidin-4-yl)pyridin-2-yl)isoxazol-5-yl)pyrrolidin-2-one] | 50 to 500 nM |
| CN1CC[C@@](O)(c2cc(-c3cccc(-c4ccnc(NC5(C6CC6)CC5)n4)n3)no2)C1=O [Example 443, (R)-3-(3-(6-(2-([1,1′-Bi(cyclopropan)]-1-ylamino)pyrimidin-4-yl)pyridin-2-yl)isoxazol-5-yl)-3-hydroxy-1-methylpyrrolidin-2-one] | 50 to 500 nM |
| CN1CC[C@@](O)(c2cc(-c3cccc(-c4ccnc(Nc5cnn6c5OCC(C)(C)C6)n4)n3)no2)C1=O [Example 444, (R)-3-(3-(6-(2-((6,6-Dimethyl-6,7-dihydro-5H-pyrazolo[5,1-b][1,3]oxazin-3-yl)amino)pyrimidin-4-yl)pyridin-2-yl)isoxazol-5-yl)-3-hydroxy-1-methylpyrrolidin-2-one] | < 50 nM |
| CN1CC[C@@](O)(c2cc(-c3cccc(-c4ccnc(NC5CC(C(F)(F)F)C5)n4)n3)no2)C1=O (stereo partly drawn) [Example 445, (R)-3-Hydroxy-1-methyl-3-(3-(6-(2-((3-(trifluoromethyl)cyclobutyl)amino)pyrimidin-4-yl)pyridin-2-yl)isoxazol-5-yl)pyrrolidin-2-one] | > 500 nM |
| CN1CC[C@@](O)(c2cc(-c3cccc(-c4ccnc(NC5CSC5)n4)n3)no2)C1=O [Example 446, (R)-3-Hydroxy-1-methyl-3-(3-(6-(2-(thietan-3-ylamino)pyrimidin-4-yl)pyridin-2-yl)isoxaozl-5-yl)pyrrolidin-2-one] | 50 to 500 nM |
| CN1CC[C@@](O)(c2cc(-c3cccc(-c4ccnc(NC5CCN(S(=O)(=O)C6CC6)CC5)n4)n3)no2)C1=O [Example 447, (R)-3-(3-(6-(2-((1-(Cyclopropylsulfonyl)piperidin-4-yl)amino)pyrimidin-4-yl)pyridin-2-yl)isoxazol-5-yl)-3-hydroxy-1-methylpyrrolidin-2-one] | 50 to 500 nM |
| CO[C@@H]1CCC[C@H](Nc2nccc(-c3cccc(-c4cc([C@]5(O)CCN(C)C5=O)on4)n3)n2)C1 [Example 449, (R)-3-Hydroxy-3-(3-(6-(2-(((1S,3R)-3-methoxycyclohexyl)amino)pyrimidin-4-yl)pyridin-2-yl)isoxazol-5-yl)-1-methylpyrrolidin-2-one] | 50 to 500 nM |
| CN1CC[C@@](O)(c2cc(-c3cccc(-c4ccnc(N[C@H]5CCC[C@@H](O)C5)n4)n3)no2)C1=O [Example 450, (R)-3-Hydroxy-3-(3-(6-(2-(((1S,3R)-3-hydroxycyclohexyl)amino)pyrimidin-4-yl)pyridin-2-yl)isoxazol-5-yl)-1-methylpyrrolidin-2-one] | 50 to 500 nM |
| CN1CC[C@@](O)(c2cc(-c3cccc(-c4ccnc(NC5CCC(C(F)(F)F)CC5)n4)n3)no2)C1=O (stereo partly drawn) [Example 451, (R)-3-Hydroxy-1-methyl-3-(3-(6-(2-((4-(trifluoromethyl)cyclohexyl)amino)pyrimidin-4-yl)pyridin-2-yl)isoxazol-5-yl)pyrrolidin-2-one] | > 500 nM |
| CN1CC[C@@](O)(c2cc(-c3cccc(-c4ccnc(NC5CCOCC5)n4)n3)no2)C1=O [Example 452, (R)-3-Hydroxy-1-methyl-3-(3-(6-(2-((tetrahydro-2H-pyran-4-yl)amino)pyrimidin-4-yl)pyridin-2-yl)isoxazol-5-yl)pyrrolidin-2-one] | 50 to 500 nM |
| CN1CC[C@@](O)(c2cc(-c3cccc(-c4ccnc(NC5CCC5)n4)n3)no2)C1=O [Example 453, (R)-3-(3-(6-(2-(Cyclobutylamino)pyrimidin-4-yl)pyridin-2-yl)isoxazol-5-yl)-3-hydroxy-1-methylpyrrolidin-2-one] | 50 to 500 nM |
| CN1CC[C@@](O)(c2cc(-c3cccc(-c4ccnc(N[C@H]5CCCOC5)n4)n3)no2)C1=O [Example 454, (R)-3-Hydroxy-1-methyl-3-(3-(6-(2-(((S)-tetrahydro-2H-pyran-3-yl)amino)pyrimidin-4-yl)pyridin-2-yl)isoxaozl-5-yl)pyrrolidin-2-one] | 50 to 500 nM |
| CN1CC[C@@](O)(c2cc(-c3cccc(-c4ccnc(N[C@@H]5CCCOC5)n4)n3)no2)C1=O [Example 455, (R)-3-Hydroxy-1-methyl-3-(3-(6-(2-(((R)-tetrahydro-2H-pyran-3-yl)amino)pyrimidin-4-yl)pyridin-2-yl)isoxazol-5-yl)pyrrolidin-2-one] | > 500 nM |
| CN1CC[C@@](O)(c2cc(-c3cccc(-c4ccnc(N[C@@H]5CCOC5)n4)n3)no2)C1=O [Example 460, (R)-3-Hydroxy-1-methyl-3-(3-(6-(2-(((R)-tetrahydrofuran-3-yl)amino)pyrimidin-4-yl)pyridin-2-yl)isoxazol-5-yl)pyrrolidin-2-one] | 50 to 500 nM |
| CNC(=O)c1cc(Nc2nccc(-c3cccc(-c4cc([C@]5(O)CCN(C)C5=O)on4)n3)n2)nn1C(C)C [Example 464, (R)-3-((4-(6-(5-(3-Hydroxy-1-methyl-2-oxopyrrolidin-3-yl)isoxazol-3-yl)pyridin-2-yl)pyrimidin-2-yl)amino)-1-isopropyl-N-methyl-1H-pyrazole-5-carboxamide] | < 50 nM |
| CN1CC[C@@](O)(c2cc(-c3cccc(-c4ccnc(NCC5(O)CC5)n4)n3)no2)C1=O [Example 466, (R)-3-Hydroxy-3-(3-(6-(2-(((1-hydroxycyclopropyl)methyl)amino)pyrimidin-4-yl)pyridin-2-yl)isoxazol-5-yl)-1-mehtylpyrrolidin-2-one] | > 500 nM |
| CN1CCn2nc(Nc3nccc(-c4cccc(-c5cc([C@]6(O)CCN(C)C6=O)on5)n4)n3)cc2C1=O [Example 467, (R)-2-((4-(6-(5-(3-Hydroxy-1-methyl-2-oxopyrrolidin-3-yl)isoxazol-3-yl)pyridin-2-yl)pyrimidin-2-yl)amino)-5-methyl-6,7-dihydropyrazolo[1,5-a]pyrazin-4(5H)-one] | 50 to 500 nM |
| CN1CC[C@@](O)(c2cc(-c3cccc(-c4ccnc(Nc5cnc6c(c5)COCC6)n4)n3)no2)C1=O [Example 468, (R)-3-(3-(6-(2-((7,8-Dihydro-5H-pyrano[4,3-b]pyridin-3-yl)amino)pyrimidin-4-yl)pyridin-2-yl)isoxazol-5-yl)-3-hydroxy-1-methylpyrrolidin-2-one] | < 50 nM |
| COC1CCC(Nc2nccc(-c3cccc(-c4cc([C@]5(O)CCN(C)C5=O)on4)n3)n2)CC1 (stereo partly drawn) [Example 469, (R)-3-Hydroxy-3-(3-(6-(2-((4-methoxycyclohexyl)amino)pyrimidin-4-yl)pyridin-2-yl)isoxazol-5-yl)-1-methylpyrrolidin-2-one] | > 500 nM |
| CCS(=O)(=O)N1CCC(Nc2nccc(-c3cccc(-c4cc([C@]5(O)CCN(C)C5=O)on4)n3)n2)CC1 [Example 470, (R)-3-(3-(6-(2-((1-(Ethylsulfonyl)piperidin-4-yl)amino)pyrimidin-4-yl)pyridin-2-yl)isoxazol-5-yl)-3-hydroxy-1-methylpyrrolidin-2-one] | < 50 nM |
